A short description of the assay: Cytotoxicity against human KV/MDR cells at 100 uM after 48 hrs by MTT assay. The format is functional. As to conditions: read-out: GI.

Molecules are shown by their SMILES.

On to `C[C@@H]1C[C@H](O)CCCc2cc(O)cc(O)c2C(=O)O1`, for which the inhibition of growth at 100 µM stood at 42.4%.
Take `C[C@@H]1C[C@@H](O)CCCc2cc(O)cc(O)c2C(=O)O1`: the inhibition of growth at 100 µM came out at 41.6%.
